US20260285850A1, “SUBSTITUTED OXAZOLIDINONES AND IMIDAZOLINONES AS HERBICIDES” (FMC CORPORATION, priority 2023, published 2026)

Key:
Format in all cases: in vivo
[1] = system: barnyardgrass (Echinochloa crus-galli); experiment: Test A preemergence soil spray, visual injury rating 0-100; conditions: 10 days, 0 = no effect, 100 = complete control
Method in brief: (§1)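 Rating: visual, day 10, untreated plants as reference, 0 no effect to 100 full control. Plants were in loam-sand and were treated either preemergence via directed soil spray or postemergence at the one- to two-leaf stage.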

[2] = system: blackgrass (Alopecurus myosuroides); experiment: as above; conditions: 10 days, 0 = no effect, 100 = complete control
Method in brief: as §1

corn (Zea mays) [3] = experiment: as above; conditions: 10 days, 0 = no effect, 100 = complete control
Method in brief: as §1

[4] = system: green foxtail (Setaria viridis); experiment: as above; conditions: 10 days, 0 = no effect, 100 = complete control
Method in brief: as §1

kochia (Bassia scoparia) [5] = experiment: as above; conditions: 10 days, 0 = no effect, 100 = complete control
Method in brief: as §1

[6] = system: oat, wild (wild oat, Avena fatua); experiment: as above; conditions: 10 days, 0 = no effect, 100 = complete control
Method in brief: as §1

[7] = system: palmer (palmer amaranth, palmer pigweed, Amaranthus palmeri); experiment: as above; conditions: 10 days, 0 = no effect, 100 = complete control
Method in brief: as §1

[8] = system: ragweed (common ragweed, Ambrosia artemisiifolia); experiment: as above; conditions: 10 days, 0 = no effect, 100 = complete control
Method in brief: as §1

[9] = system: ryegrass, Italian (italian ryegrass, Lolium multiflorum); experiment: as above; conditions: 10 days, 0 = no effect, 100 = complete control
Method in brief: as §1

soybean (Glycine max) [10] = experiment: as above; conditions: 10 days, 0 = no effect, 100 = complete control
Method in brief: as §1

[11] = system: wheat (Triticum aestivum); experiment: as above; conditions: 10 days, 0 = no effect, 100 = complete control
Method in brief: as §1

[12] = system: barnyardgrass (Echinochloa crus-galli); experiment: Test A postemergence application, visual injury rating 0-100; conditions: Postemergence
Method in brief: as §1

[13] = system: blackgrass (Alopecurus myosuroides); experiment: as above; conditions: Postemergence
Method in brief: as §1

corn (Zea mays) [14] = experiment: as above; conditions: Postemergence
Method in brief: as §1

[15] = system: galium (catchweed bedstraw, Galium aparine); experiment: as above; conditions: Postemergence
Method in brief: as §1

[16] = system: green foxtail (Setaria viridis); experiment: as above; conditions: Postemergence
Method in brief: as §1

[17] = system: horseweed (Erigeron canadensis); experiment: as above; conditions: Postemergence
Method in brief: as §1

kochia (Bassia scoparia) [18] = experiment: as above; conditions: Postemergence
Method in brief: as §1

[19] = system: oat, wild (wild oat, Avena fatua); experiment: as above; conditions: Postemergence
Method in brief: as §1

[20] = system: palmer (palmer amaranth, palmer pigweed, Amaranthus palmeri); experiment: as above; conditions: Postemergence
Method in brief: as §1

[21] = system: ragweed (common ragweed, Ambrosia artemisiifolia); experiment: as above; conditions: Postemergence
Method in brief: as §1

[22] = system: ryegrass, Italian (italian ryegrass, Lolium multiflorum); experiment: as above; conditions: Postemergence
Method in brief: as §1

soybean (Glycine max) [23] = experiment: as above; conditions: Postemergence
Method in brief: as §1

[24] = system: wheat (Triticum aestivum); experiment: as above; conditions: Postemergence
Method in brief: as §1

[25] = system: barnyardgrass (Echinochloa crusgalli); experiment: Test B flooded paddy test, visual plant response rating 0-100; conditions: 250 g ai/ha, Flood, applied to paddy water, evaluated after 13 days
Method in brief: (§2)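 Compounds applied to standing paddy water (3 cm above soil, maintained for the test duration) on 2-leaf-stage plants; visual rating vs controls at 13 days, greenhouse.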

[26] = system: ducksalad (Heteranthera limosa); experiment: as above; conditions: 250 g ai/ha, Flood, applied to paddy water, evaluated after 13 days
Method in brief: as §2

rice (Oryza sativa) = experiment: as above; conditions: 250 g ai/ha, Flood, applied to paddy water, evaluated after 13 days
Method in brief: as §2

[27] = system: sedge, umbrella (small-flower umbrella sedge, Cyperus difformis); experiment: as above; conditions: 250 g ai/ha, Flood, applied to paddy water, evaluated after 13 days
Method in brief: as §2

[28] = 31 g ai/ha, greenhouse 10 days, 0 no effect, 100 complete control
[29] = 125 g ai/ha, 10 days, 0 is no effect, 100 is complete control

COC(=O)COC(=O)C1C=CC(NC(=O)C2(C)CN(c3cc(Cl)cc(Cl)c3)C(=O)O2)C1 (stereo not shown) [Compound 65]
60: Plant response rating, Rice (0 to 100 scale, 0 is no effect and 100 is complete control) (rice (Oryza sativa))
90: Barnyardgrass plant response rating (0-100) ([1]; 31 g ai/ha) | Barnyardgrass plant response rating (0 to 100 scale) ([1]; 125 g ai/ha) | Foxtail, Green plant response rating (0-100) ([4]; 31 g ai/ha) | Foxtail, Green plant response rating (0 to 100 scale) ([4]; 125 g ai/ha) | Ryegrass, Italian plant response rating (0 to 100 scale) ([9]; 125 g ai/ha) | Wheat plant response rating (0 to 100 scale) ([11]; 125 g ai/ha) | Blackgrass plant response rating (0 to 100 scale) [13, 28] | Galium plant response rating (0 to 100 scale) [15, 29] | Foxtail, Green plant response rating (0 to 100 scale) [16, 28] | Foxtail, Green plant response rating (0 to 100 scale) [16, 29] | Kochia plant response rating (0 to 100 scale) (kochia (Bassia scoparia) [18]; [29]) | Oat, Wild plant response rating (0 to 100 scale) [19, 28] | Oat, Wild plant response rating (0 to 100 scale) [19, 29] | Amaranth, Palmer / Pigweed, Palmer plant response rating (0 to 100 scale) [20, 28] | Amaranth, Palmer / Pigweed, Palmer plant response rating (0 to 100 scale) [20, 29] | Wheat plant response rating (0 to 100 scale) [24, 28] | Wheat plant response rating (0 to 100 scale) [24, 29]
75: Plant response rating, Barnyardgrass (0 to 100 scale, 0 is no effect and 100 is complete control) [25]
70: Blackgrass plant response rating (0 to 100 scale) ([2]; 125 g ai/ha) | Corn plant response rating (0 to 100 scale) (corn (Zea mays) [3]; 125 g ai/ha) | Ragweed plant response rating (0 to 100 scale) ([8]; 125 g ai/ha) | Ryegrass, Italian plant response rating (0-100) ([9]; 31 g ai/ha) | Soybean plant response rating (0 to 100 scale) (soybean (Glycine max) [10]; 125 g ai/ha) | Horseweed plant response rating (0 to 100 scale) [17, 28] | Horseweed plant response rating (0 to 100 scale) [17, 29]
95: Plant response rating, Ducksalad (0 to 100 scale, 0 is no effect and 100 is complete control) [26]
100: Amaranth, Palmer plant response rating (0-100) ([7]; 31 g ai/ha) | Amaranth, Palmer plant response rating (0 to 100 scale) ([7]; 125 g ai/ha) | Barnyardgrass plant response rating (0 to 100 scale) [12, 28] | Barnyardgrass plant response rating (0 to 100 scale) [12, 29] | Blackgrass plant response rating (0 to 100 scale) [13, 29] | Corn plant response rating (0 to 100 scale) (corn (Zea mays) [14]; [28]) | Corn plant response rating (0 to 100 scale) (corn (Zea mays) [14]; [29]) | Ryegrass, Italian plant response rating (0 to 100 scale) [22, 28] | Ryegrass, Italian plant response rating (0 to 100 scale) [22, 29] | Plant response rating, Sedge, Umbrella (0 to 100 scale, 0 is no effect and 100 is complete control) [27]
80: Oat, Wild plant response rating (0 to 100 scale) ([6]; 125 g ai/ha) | Galium plant response rating (0 to 100 scale) [15, 28] | Kochia plant response rating (0 to 100 scale) (kochia (Bassia scoparia) [18]; [28]) | Ragweed plant response rating (0 to 100 scale) [21, 28] | Ragweed plant response rating (0 to 100 scale) [21, 29] | Soybean plant response rating (0 to 100 scale) (soybean (Glycine max) [23]; [28]) | Soybean plant response rating (0 to 100 scale) (soybean (Glycine max) [23]; [29])
20: Oat, Wild plant response rating (0-100) ([6]; 31 g ai/ha)
50: Blackgrass plant response rating (0-100) ([2]; 31 g ai/ha) | Wheat plant response rating (0-100) ([11]; 31 g ai/ha)
10: Kochia plant response rating (0-100) (kochia (Bassia scoparia) [5]; 31 g ai/ha) | Kochia plant response rating (0 to 100 scale) (kochia (Bassia scoparia) [5]; 125 g ai/ha) | Ragweed plant response rating (0-100) ([8]; 31 g ai/ha) | Soybean plant response rating (0-100) (soybean (Glycine max) [10]; 31 g ai/ha)
0: Corn plant response rating (0-100) (corn (Zea mays) [3]; 31 g ai/ha)
